Series [1] has as its system HCC70 cells. The experiment in a line: Inhibition of cell proliferation, CellTiter-Glo, HCC70. The series is classed as cell-based. The conditions noted are these: Homo sapiens, HCC70, 72 h. Here is the method: (§1) The compounds were each prepared with 100% DMSO into 10 mM mother liquor.
(§2) HCC70 cells and OVCAR3 cells were digested and counted. Cells were diluted to an appropriate concentration according to cell density. 100 μL of cells were added to each well of a 96-well plate. Medium wells served as blank control (Min). The cells were incubated overnight in an incubator at 37° C./5% CO2.
(§3) A 200-fold stock solution of a compound was prepared with DMSO, and the compound was diluted with growth medium to a 3-fold stock solution, i.e., […] of each of 200-fold stock solutions of compound at different concentrations was added to 197 μL of medium. 50 μL of diluted compound was added to each well and the mixture was incubated at 37° C./5% CO2 for 72 h.
(§4) The 96-well plate was equilibrated to room temperature before detection. 40 μL of CellTiter-Glo solution was added to each well. The mixture was mixed for 2 min using a horizontal shaker to induce cell lysis. The mixture was incubated at room temperature for 60 min to stabilize […] signals. Fluorescence values were read on ENVISION.
(§5) (1) Data was analyzed by GraphPad Prism 5
(§6) (2) % inhibition rate=(maximum signal−compound signal)/(maximum signal−minimum signal)×100
(§7) (3) Maximum signal: signal of DMSO well
(§8) (4) Minimum signal: signal of medium well
(§9) The effect of SZ-015200, SZ-015256 and SZ-015268 on cell proliferation after incubation with HCC70, OVCAR-3, HCT116 and HCC1806 cells for 3 days was detected according to the method described in Efficacy Example 2, and the results are shown in Table 3.

In series [2] the test system is OVCAR3 cells. The experiment in a line: Inhibition of cell proliferation, CellTiter-Glo, OVCAR3. It counts as cell-based. To be noted: Homo sapiens, OVCAR-3, 72 h. The procedure: as §1, §2, §3, §4, §5, §6, §7, §8, §9
For orientation: ATP-based viability assays read luminescence as a measure of living cells.

Series [3] concerns HCT116 cells. Put plainly: Inhibition of cell proliferation, CellTiter-Glo, HCT116. The series is classed as cell-based. To be noted: Homo sapiens, HCT-116, 72 h; Efficacy Example 3 (Table 3), incubation for 3 days. Here is the method: as §2, §3, §4, §6, §9
Series [4] deals with HCC1806 cells. Put plainly: Inhibition of cell proliferation, CellTiter-Glo, HCC1806. It counts as cell-based. The conditions noted are these: Homo sapiens, HCC1806, 72 h; Efficacy Example 3 (Table 3), incubation for 3 days. Here is the method: as §2, §3, §4, §6, §9
A short description of series [5]: In vivo pharmacokinetics after intragastric administration in mice. To be noted: single intragastric administration, 20 mg/kg. Here is the method:
Male 1CR mice were divided into different groups with 3 mice in each group, and single intragastric administration was conducted for each group. The compounds were each formulated with 10% DMSO/10% Solutol/80% ([…]) to reach an appropriate concentration and then administered intragastrically at 20 mg/kg. Blood was taken 5 min, 15 min, 30 min, 1 h, 2 h, 4 h, 6 h, 8 h and 24 h after administration, and then subjected to EDTA-K2 anticoagulation. The concentration of the compound in the plasma was quantitatively detected by an LC-MS/MS method.

The nature of series [6]: In vivo pharmacokinetics after intragastric administration in rats. On the set-up: species or system SD rats. The conditions noted are these: single intragastric administration, 40 mg/kg. Here is the method:
Male SD rats were divided into different groups with 3 rats in each group, and single intragastric administration was conducted for each group. The compounds were each formulated with 10% DMSO/10% Solutol/80% (20% Captisol) to reach an appropriate concentration and then administered intragastrically at 40 mg/kg. Blood was taken 5 min, 15 min, 30 min, 1 h, 2 h, 4 h, 6 h, 8 h and 24 h after administration, and then subjected to EDTA-K2 anticoagulation. The concentration of the compound in the plasma was quantitatively detected by an LC-MS/MS method.

Series [7] relates to human colon cancer cells HCT116 xenograft tumor. Put plainly: In vivo efficacy in subcutaneous xenograft tumor model of human colon cancer cells HCT116. On the set-up: species or system BALB/c nude mice. The procedure: HCT116 tumor cells used in this test were purchased from ATCC. HCT116 tumor cells were cultured in McCoy's 5a medium containing inactivated 10% fetal bovine serum, 100 U/mL penicillin, 100 μg/mL streptomycin and 2 mM glutamine in an incubator at 37° C./5% CO2. The cells were divided and transferred to other bottles every 3 to 4 days for passaging when the culture bottle was full of cells. The tumor cells in the logarithmic growth phase were used for tumor seeding in vivo.
HCT116 tumor cells resuspended in serum-free McCoy's 5a culture solution were seeded subcutaneously into the right costal part of male BALB/c nude mice at 5×10^6/0.1 mL. When the tumor grew to 101 mm^3, animals with uniform tumor volume were selected and divided into groups with 8 animals in each group for administration, and the specific administration regimens are shown in Table 6 below.
Tumor volume: the long and short diameters of the tumor were measured twice every week using a vernier caliper for calculating the tumor volume, and the calculation formula was:
volume=0.5×long diameter×short diameter^2.
[…]=mean value of relative tumor volume of treatment group/mean value of relative tumor volume of control group×100
Tumor growth inhibition rate(TGI,%)=(1−T/C)×100
Statistical analysis between groups was performed for tumor volume using One-Way ANOVA test, and a significant difference was considered to be present when p<0.05.
(Xenograft models place foreign cells or tissue in a host animal.)

The target of series [8] is CDK7/Cyclin H/MAT1 (Homo sapiens, UniProt P50613). The experiment in a line: CDK7 inhibition, mobility shift assay.
Sequence of CDK7/Cyclin H/MAT1 (P50613 whole entry): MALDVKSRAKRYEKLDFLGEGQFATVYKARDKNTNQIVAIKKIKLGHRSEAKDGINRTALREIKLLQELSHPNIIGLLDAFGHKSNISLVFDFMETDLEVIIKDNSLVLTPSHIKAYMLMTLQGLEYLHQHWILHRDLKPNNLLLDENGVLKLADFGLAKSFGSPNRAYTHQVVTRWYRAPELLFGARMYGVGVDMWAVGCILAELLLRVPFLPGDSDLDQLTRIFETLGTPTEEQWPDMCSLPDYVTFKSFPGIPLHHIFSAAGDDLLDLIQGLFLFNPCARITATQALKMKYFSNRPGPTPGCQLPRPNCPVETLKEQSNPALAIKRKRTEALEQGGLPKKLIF
Sequence of CDK7/Cyclin H/MAT1 (P51946 whole entry partner): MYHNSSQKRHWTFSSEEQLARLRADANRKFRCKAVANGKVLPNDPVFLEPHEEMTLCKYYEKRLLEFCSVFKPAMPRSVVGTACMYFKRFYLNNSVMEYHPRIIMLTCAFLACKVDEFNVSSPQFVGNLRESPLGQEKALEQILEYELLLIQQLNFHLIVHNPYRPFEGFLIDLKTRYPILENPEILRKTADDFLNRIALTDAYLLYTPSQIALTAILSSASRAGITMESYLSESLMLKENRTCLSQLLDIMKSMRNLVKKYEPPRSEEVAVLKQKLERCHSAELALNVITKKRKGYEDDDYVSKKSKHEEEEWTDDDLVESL
Sequence of CDK7/Cyclin H/MAT1 (P51948 whole entry partner): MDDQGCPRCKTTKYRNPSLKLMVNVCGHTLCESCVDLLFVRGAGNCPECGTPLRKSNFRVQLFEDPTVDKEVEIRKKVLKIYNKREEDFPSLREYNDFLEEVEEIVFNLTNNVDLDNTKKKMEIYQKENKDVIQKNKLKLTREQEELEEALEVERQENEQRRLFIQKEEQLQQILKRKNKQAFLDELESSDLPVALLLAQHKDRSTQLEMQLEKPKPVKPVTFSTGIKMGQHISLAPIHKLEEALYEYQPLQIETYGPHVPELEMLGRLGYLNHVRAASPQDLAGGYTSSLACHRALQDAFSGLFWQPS
Description: The initial concentration of compound was 10 μM, and the compound was 3-fold diluted to obtain 10 concentrations. Duplicate wells were set for the assay, and the pre-incubation time of compound and enzyme was 60 min.
Compound powders were dissolved in 100% DMSO to prepare 10 mM stock solution, which was 3-fold diluted with DMSO, with 0.5 mM as the initial concentration, to obtain 10 concentration gradients of compound solutions.
(1) Compound at each concentration was 8.3-fold diluted with ddH2O, and then 2 μL of each compound solution and positive control were added to a 384-well plate.
(2) 5 μL of a kinase working solution (CDK7/Cyclin H/MAT1) was added to the compound wells and positive control wells to make the final concentration of CDK7 be 3 nM.
(3) The plate was pre-incubated at room temperature for 60 min.
(5) The 384-well plate was incubated at 27° C. for 36 min.
(6) 4 μL of 80 mM EDTA was added to terminate the reaction.
(7) The conversion rates were read using a Caliper EZ Reader II.
The mark [9] stands for this setting: Efficacy Example 2 (Table 2), 72 h incubation.
[10] abbreviates: Efficacy Example 3 (Table 3), incubation for 3 days.
Setting [11] is: 25 mg/kg p.o. QD × 21 days, mean value ± standard error.

`Cc1nc(NC2CCN(C(=O)O[C@H]3CCN(C(=O)/C=C/CN(C)C)C3)CC2)c2ncc(C(C)C)n2n1` [SZ-015268, (S,E)-1-(4-(dimethylamino)but-2-enoyl)pyrrolidin-3-yl 4-((7-isopropyl-2-methylimidazo[2,1-f][1,2,4]triazin-4-yl)amino)piperidin-1-carboxylate]: the IC50 – broadly, the concentration needed to halve the response being measured – in series [1] (setting [9]) came to 57.5 nM; in series [1] (setting [10]), 33 nM; in series [2] (setting [9]), 29.9 nM; in series [2] (setting [10]) it was 80.6 nM; in series [3], 12.5 nM; in series [4], 61.5 nM. Moreover, the AUC(0-inf) (commonly total exposure, with the tail of the curve extrapolated) was found to be 3150 ng·h/mL in series [5] (male, ICR, mouse, po, plasma) and 4510 ng·h/mL in series [6] (male, SD, rat, po, plasma). Moreover, the AUC(0-t) (as a rule, exposure summed from dosing to a finite time, without extrapolation to infinity) in series [5] (male, ICR, mouse, po, plasma) amounted to 3100 ng·h/mL; in series [6] (male, SD, rat, po, plasma) it was 4450 ng·h/mL. Moreover, the peak concentration (Cmax) (usually the highest concentration seen after dosing) in series [5] (male, ICR, mouse, po, plasma) turned out to be 1540 ng/mL; in series [6] (male, SD, rat, po, plasma), 543 ng/mL. For the same compound, the Tmax (in general, the time at which the peak concentration occurs) in series [5] (male, ICR, mouse, po, plasma) turned out to be 0.42 h; in series [6] (male, SD, rat, po, plasma) it was 4 h. Moreover, the half-life (as a rule, how long it takes for the measured level to halve) is 1.39 h in series [5] (male, ICR, mouse, po, plasma) and 3.92 h in series [6] (male, SD, rat, po, plasma). Moreover, the “Cmax and AUC compared with the control compound SZ-015200” value in series [5] (in words) is “not lower”; in series [6] (in words) it was “The results show that compared with the control compound SZ-015200, the Cmax and the AUC of SZ-015256 and SZ-015268 in rats after single intragastric administration were significantly higher, which indicates that SZ-015256 and SZ-015268 have better pharmacokinetic properties”. Moreover, the “Tumor inhibition rate (TGI)” value in series [7] (25 mg/kg p.o. QD × 21 days, day 21) was 84.3%. Also, the “% proliferation percentage of tumor volume (Day 21 after grouping)” value in series [7] (setting [11]) is 167 ± 39%. Also, in series [7] (setting [11]), the “Tumor volume (day 21 after grouping)” value amounted to 172 ± 41 mm^3. In addition, the “Effect on inhibiting tumor proliferation compared with the control compound SZ-015200 (in words)” value in series [7] (HCT116 xenograft, p.o. QD × 21 days) is recorded as “stronger effect on inhibiting tumor proliferation”. Moreover, the “Anti-tumor effect (in words)” value in series [7] (SZ-015256: 25 mg/kg and 15 mg/kg treatment groups, SZ-015268 and SZ-015200: 25 mg/kg treatment group) is “significant anti-tumor effect”.

For the compound `Cc1nc(NC2CCN(C(=O)O[C@H]3CCN(C(=O)/C=C/CN(C)C)C3)CC2)c2ncc(C(C)C)n2n1` [SZ-0015268], the IC50 in series [8] amounted to 23.6 nM.

For `Cc1cc(NC2CCN(C(=O)O[C@H]3CCN(C(=O)/C=C/CN(C)C)C3)CC2)c2ncn(C(C)C)c2n1` [SZ-015095, (S,E)-1-(4-(dimethylamino)but-2-enoyl)pyrrolidin-3-yl 4-((3-isopropyl-5-methyl-3H-imidazo[4,5-b]pyridin-7-yl)amino)piperidine-1-carboxylate], the IC50 in series [1] (setting [9]) was 479 nM; in series [2] (setting [9]), 138 nM; in series [8] it was 128 nM.

For the compound `CC(C)Nc1nc(NC2CCN(C(=O)O[C@H]3CCN(C(=O)/C=C/CN(C)C)C3)CC2)c2ncc(C(C)C)n2n1` [SZ-015328, (S,E)-1-(4-(dimethylamino)but-2-enoyl)pyrrolidin-3-yl 4-((7-isopropyl-2-(isopropylamino)imidazo[2,1-f][1,2,4]triazin-4-yl)amino)piperidine-1-carboxylate], the concentration for half-maximal inhibition (IC50) in series [1] (setting [9]) worked out at 252 nM; in series [2] (setting [9]) it was 110 nM.

Turning to `CC#CC(=O)N1CC[C@H](OC(=O)N2CCC(Nc3nc(C)nc4c(C(C)C)cnn34)CC2)C1` [SZ-015294, (S)-1-(but-2-ynoyl)pyrrolidin-3-yl 4-((8-isopropyl-2-methylpyrazolo[1,5-a][1,3,5]triazin-4-yl)amino)piperidine-1-carboxylate], the IC50 in series [1] (setting [9]) was determined as 50.2 nM; in series [2] (setting [9]) it was 72.1 nM.

For `Cc1cc2c(ncn2C(C)C)c(NC2CCN(C(=O)O[C@H]3CCN(C(=O)/C=C/CN(C)C)C3)CC2)n1` [SZ-015272, (S,E)-1-(4-(dimethylamino)but-2-enoyl)pyrrolidin-3-yl 4-((1-isopropyl-6-methyl-1H-imidazo[4,5-c]pyridin-4-yl)amino)piperidine-1-carboxylate], the results for the IC50 in series [1] (setting [9]), in series [2] (setting [9]) and in series [8] were 948 nM, 460 nM and 278 nM, respectively.

Regarding `CC[C@H](CO)Nc1cc(NC2CCN(C(=O)O[C@H]3CCN(C(=O)/C=C/CN(C)C)C3)CC2)c2ncc(C(C)C)n2n1` [SZ-015317, (S)-1-((E)-4-(dimethylamino)but-2-enoyl)pyrrolidin-3-yl 4-((6-(((R)-1-hydroxybutan-2-yl)amino)-3-isopropylimidazo[1,2-b]pyridazin-8-yl)amino) piperidine-1-carboxylate], the IC50 in series [1] (setting [9]) came to 237 nM; in series [2] (setting [9]), 429 nM.

For the compound `CC(C)n1cnc2c(NC3CCN(C(=O)O[C@H]4CCN(C(=O)/C=C/CN(C)C)C4)CC3)ccnc21` [SZ-015286, (S,E)-1-(4-(dimethylamino)but-2-enoyl)pyrrolidin-3-yl 4-((3-isopropyl-3H-imidazo[4,5-b]pyridin-7-yl)amino)piperidine-1-carboxylate], the IC50 is 570 nM in series [1] (setting [9]) and 167 nM in series [2] (setting [9]).

In the case of `CC(C)c1cnn2c(NC3CCN(C(=O)O[C@H]4CCN(C(=O)/C=C/CN(C)C)C4)CC3)nc(NC3CC3)nc12` [SZ-015331, (S,E)-1-(4-(dimethylamino)but-2-enoyl)pyrrolidin-3-yl 4-((2-(cyclopropylamino)-8-isopropylpyrazolo[1,5-a][1,3,5]triazin-4-yl)amino)piperidine-1-carboxylate], the IC50 in series [1] (setting [9]) is 70.1 nM; in series [2] (setting [9]) it was 36.7 nM.

Consider `Cc1cc(NC2CCN(C(=O)O[C@H]3CCN(C(=O)/C=C/CN(C)C)C3)CC2)c2ncc(C(C)C)n2n1` [SZ-015273, (S,E)-1-(4-(dimethylamino)but-2-enoyl)pyrrolidin-3-yl 4-((3-isopropyl-6-methylimidazo[1,2-b]pyridazin-8-yl)amino)piperidin-1-carboxylate], for which the IC50 in series [1] (setting [9]) was found to be 291 nM; in series [2] (setting [9]) it was 31.9 nM; in series [8], 44.5 nM.

As to `CC(C)n1cnc2c(NC3CCN(C(=O)O[C@H]4CCN(C(=O)/C=C/CN(C)C)C4)CC3)nc(CO)nc21` [SZ-015297, (S,E)-1-(4-(dimethylamino)but-2-enoyl)pyrrolidin-3-yl-4-((2-(hydroxymethyl)-9-isopropyl-9H-purin-6-yl)amino)piperidine-1-carboxylate], the IC50 in series [1] (setting [9]) was 252 nM; in series [2] (setting [9]) it was 168 nM.

As for `Cc1cn2c(C(C)C)cnc2c(NC2CCN(C(=O)O[C@H]3CCN(C(=O)/C=C/CN(C)C)C3)CC2)n1` [SZ-015274], the IC50 turned out to be 187 nM in series [1] (setting [9]), 151 nM in series [2] (setting [9]) and 197 nM in series [8].

The values above are taken from patent US20230115907A1, “HETEROCYCLIC COMPOUND AND PHARMACEUTICAL COMPOSITION, PREPARATION METHOD, INTERMEDIATE AND USE THEREOF” (EVOPOINT BIOSCIENCES CO., LTD., priority 2019, published 2023).
